Assay results as given in PMC12267109, “The enzyme kinetics of branched‐chain fatty acid synthesis of metazoan fatty acid synthase” (Protein Science : A Publication of the Protein Society, 2025).

How the values were obtained:
[1] = biological target: T1, metazoan fatty acid synthase (mFAS), murine FAS (Mus musculus, UniProt P19096); test: NADPH consumption assay with purified mFAS; GC-MS of methyl-branched fatty acid products; assay type: biochemical
T1 construct: gene Fasn; full length mFAS

[2] = biological target: T1, metazoan fatty acid synthase (mFAS), murine FAS; test: NADPH consumption by purified mFAS, fluorescence; assay type: biochemical

T1 sequence (P19096 whole entry): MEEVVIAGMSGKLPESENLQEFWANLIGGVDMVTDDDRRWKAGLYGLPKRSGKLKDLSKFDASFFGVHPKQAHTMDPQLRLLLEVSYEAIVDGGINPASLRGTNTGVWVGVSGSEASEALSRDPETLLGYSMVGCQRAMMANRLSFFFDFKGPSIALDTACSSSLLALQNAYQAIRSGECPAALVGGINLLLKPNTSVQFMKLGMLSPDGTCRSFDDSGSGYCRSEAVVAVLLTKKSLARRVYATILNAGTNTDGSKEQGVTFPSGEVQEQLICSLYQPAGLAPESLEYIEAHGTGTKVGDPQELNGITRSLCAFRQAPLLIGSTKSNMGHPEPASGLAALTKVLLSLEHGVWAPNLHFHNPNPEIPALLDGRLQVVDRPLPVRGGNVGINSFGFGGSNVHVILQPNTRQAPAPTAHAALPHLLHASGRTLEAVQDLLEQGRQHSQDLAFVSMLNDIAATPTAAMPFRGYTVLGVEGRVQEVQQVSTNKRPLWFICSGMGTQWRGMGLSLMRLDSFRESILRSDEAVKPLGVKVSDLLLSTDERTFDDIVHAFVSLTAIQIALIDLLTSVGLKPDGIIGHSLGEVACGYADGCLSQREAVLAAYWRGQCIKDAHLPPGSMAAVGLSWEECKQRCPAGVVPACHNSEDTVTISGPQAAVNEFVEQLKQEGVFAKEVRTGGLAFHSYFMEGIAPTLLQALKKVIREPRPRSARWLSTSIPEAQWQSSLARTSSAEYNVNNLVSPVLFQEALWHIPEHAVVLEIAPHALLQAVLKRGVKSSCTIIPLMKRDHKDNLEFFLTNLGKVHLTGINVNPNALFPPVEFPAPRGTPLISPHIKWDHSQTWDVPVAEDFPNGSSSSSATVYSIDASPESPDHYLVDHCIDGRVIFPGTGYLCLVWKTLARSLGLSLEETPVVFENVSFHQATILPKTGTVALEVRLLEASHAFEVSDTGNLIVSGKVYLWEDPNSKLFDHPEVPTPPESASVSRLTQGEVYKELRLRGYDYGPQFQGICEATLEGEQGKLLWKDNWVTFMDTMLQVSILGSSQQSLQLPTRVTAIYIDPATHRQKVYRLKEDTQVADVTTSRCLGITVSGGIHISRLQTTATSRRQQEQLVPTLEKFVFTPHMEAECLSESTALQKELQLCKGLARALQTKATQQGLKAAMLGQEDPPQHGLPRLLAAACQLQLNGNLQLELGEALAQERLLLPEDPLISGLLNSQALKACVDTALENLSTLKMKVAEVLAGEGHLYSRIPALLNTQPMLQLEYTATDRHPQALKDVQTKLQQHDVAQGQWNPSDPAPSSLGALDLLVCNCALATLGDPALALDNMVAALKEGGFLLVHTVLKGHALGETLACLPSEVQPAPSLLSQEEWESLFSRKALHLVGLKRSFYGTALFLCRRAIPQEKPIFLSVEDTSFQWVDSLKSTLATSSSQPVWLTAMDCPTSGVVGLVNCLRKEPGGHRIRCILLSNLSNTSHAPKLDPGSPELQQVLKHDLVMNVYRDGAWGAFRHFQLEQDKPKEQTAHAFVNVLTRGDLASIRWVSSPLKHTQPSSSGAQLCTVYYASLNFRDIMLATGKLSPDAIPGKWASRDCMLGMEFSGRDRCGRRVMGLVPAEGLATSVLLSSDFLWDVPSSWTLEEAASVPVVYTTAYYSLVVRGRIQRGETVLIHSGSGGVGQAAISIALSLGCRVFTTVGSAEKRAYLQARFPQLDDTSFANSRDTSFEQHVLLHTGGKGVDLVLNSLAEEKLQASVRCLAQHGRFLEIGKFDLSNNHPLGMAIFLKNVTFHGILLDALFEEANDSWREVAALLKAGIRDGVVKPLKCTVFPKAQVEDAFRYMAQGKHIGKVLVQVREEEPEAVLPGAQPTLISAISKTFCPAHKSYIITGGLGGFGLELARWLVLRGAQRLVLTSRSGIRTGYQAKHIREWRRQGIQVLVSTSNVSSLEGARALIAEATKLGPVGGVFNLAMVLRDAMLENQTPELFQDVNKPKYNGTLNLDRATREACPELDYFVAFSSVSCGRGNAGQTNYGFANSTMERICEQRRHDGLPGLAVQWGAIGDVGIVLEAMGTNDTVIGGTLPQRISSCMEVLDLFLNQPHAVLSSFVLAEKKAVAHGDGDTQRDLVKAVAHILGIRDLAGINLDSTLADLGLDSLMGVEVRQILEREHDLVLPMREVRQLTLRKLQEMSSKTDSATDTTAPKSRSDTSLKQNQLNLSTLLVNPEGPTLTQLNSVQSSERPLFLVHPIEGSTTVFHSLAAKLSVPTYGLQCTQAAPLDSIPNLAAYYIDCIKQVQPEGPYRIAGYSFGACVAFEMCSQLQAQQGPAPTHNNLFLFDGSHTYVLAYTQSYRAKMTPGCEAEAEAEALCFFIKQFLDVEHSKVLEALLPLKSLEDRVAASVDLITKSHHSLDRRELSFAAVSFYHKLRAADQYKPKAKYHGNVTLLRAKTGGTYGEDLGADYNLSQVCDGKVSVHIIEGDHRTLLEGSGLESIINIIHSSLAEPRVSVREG

Row | SMILES | NADPH consumption assay with purified mFAS; GC-MS of methyl-branched fatty acid [1] | NADPH consumption by purified mFAS, fluorescence [2]
1 | CC(C(=O)O)C(=O)SCCNC(=O)CCNC(=O)[C@H](O)C(C)(C)COP(=O)(O)OP(=O)(O)OC[C@H]1O[C@@H](n2cnc3c(N)ncnc32)[C@H](O)[C@@H]1OP(=O)(O)O (mixture of isomers) [methylmalonyl-CoA] | we observed increasing activity with increasing metmal‐CoA in the absence of starter substrates | –
2 | NC(=O)C1=CN([C@@H]2O[C@H](COP(=O)(O)OP(=O)(O)OC[C@H]3O[C@@H](n4cnc5c(N)ncnc54)[C@H](OP(=O)(O)O)[C@@H]3O)[C@@H](O)[C@H]2O)C=CC1 [NADPH] | – | (NADPH) consumption of the integrated β‐ketoacyl reductase and enoyl reductase domains
